In ChEMBL document CHEMBL1141242, “Estrogen receptor beta selective ligands: discovery and SAR of novel heterocyclic ligands” (Bioorg Med Chem Lett, 2005) one finds EC50 and IC50 data, which are given here for eleven molecules.

The structures appear in SMILES notation.

In assay [1] the target is T1, Estrogen receptor (Homo sapiens, UniProt P03372).
T1 sequence (P03372 whole entry): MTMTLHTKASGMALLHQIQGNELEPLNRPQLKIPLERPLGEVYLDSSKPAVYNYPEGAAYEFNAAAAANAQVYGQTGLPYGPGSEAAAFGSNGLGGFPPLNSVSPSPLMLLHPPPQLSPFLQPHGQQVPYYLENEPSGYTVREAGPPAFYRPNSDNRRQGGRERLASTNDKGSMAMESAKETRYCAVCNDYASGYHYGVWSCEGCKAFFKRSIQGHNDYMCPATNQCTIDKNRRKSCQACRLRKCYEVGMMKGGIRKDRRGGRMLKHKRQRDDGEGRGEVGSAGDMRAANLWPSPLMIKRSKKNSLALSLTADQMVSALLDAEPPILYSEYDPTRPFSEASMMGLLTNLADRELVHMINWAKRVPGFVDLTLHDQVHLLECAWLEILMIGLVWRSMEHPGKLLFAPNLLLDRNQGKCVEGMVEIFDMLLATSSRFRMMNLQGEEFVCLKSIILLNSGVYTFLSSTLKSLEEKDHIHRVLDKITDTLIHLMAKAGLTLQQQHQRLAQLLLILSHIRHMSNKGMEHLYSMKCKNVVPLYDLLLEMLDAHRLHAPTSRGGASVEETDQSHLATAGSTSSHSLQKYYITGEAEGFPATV
Description: Effect on ERalpha in MCF7 cell line transfected with ER responsive luciferase reporter

Assay [2] has as its target Estrogen receptor beta (Rattus norvegicus, UniProt Q62986).
Description: Effect on ERbeta in rat ovary granulosa cell line transfected with ER responsive luciferase reporter
The target in assay [3] is T1, Estrogen receptor. Description: biochemical.
The target of assay [4] is Estrogen receptor beta (Homo sapiens, UniProt Q92731). Put plainly: biochemical.
Estrogen receptor beta (Homo sapiens, UniProt Q92731), sequence (Q92731 whole entry): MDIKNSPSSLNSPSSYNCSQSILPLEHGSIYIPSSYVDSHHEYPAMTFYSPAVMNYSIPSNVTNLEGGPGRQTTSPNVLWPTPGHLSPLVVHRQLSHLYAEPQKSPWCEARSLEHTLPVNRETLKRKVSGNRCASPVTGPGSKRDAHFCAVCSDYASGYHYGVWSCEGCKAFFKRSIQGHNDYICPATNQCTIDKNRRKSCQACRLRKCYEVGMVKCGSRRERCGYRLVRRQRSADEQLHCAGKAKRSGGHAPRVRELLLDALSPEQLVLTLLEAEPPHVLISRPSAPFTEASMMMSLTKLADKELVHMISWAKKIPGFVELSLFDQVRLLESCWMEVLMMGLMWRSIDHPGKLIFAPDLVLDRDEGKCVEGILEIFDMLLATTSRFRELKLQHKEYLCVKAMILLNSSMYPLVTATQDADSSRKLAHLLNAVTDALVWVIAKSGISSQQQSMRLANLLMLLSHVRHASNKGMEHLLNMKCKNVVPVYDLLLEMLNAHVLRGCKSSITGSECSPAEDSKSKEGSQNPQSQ

Estrogen receptor beta (Rattus norvegicus, UniProt Q62986), sequence (Q62986 whole entry): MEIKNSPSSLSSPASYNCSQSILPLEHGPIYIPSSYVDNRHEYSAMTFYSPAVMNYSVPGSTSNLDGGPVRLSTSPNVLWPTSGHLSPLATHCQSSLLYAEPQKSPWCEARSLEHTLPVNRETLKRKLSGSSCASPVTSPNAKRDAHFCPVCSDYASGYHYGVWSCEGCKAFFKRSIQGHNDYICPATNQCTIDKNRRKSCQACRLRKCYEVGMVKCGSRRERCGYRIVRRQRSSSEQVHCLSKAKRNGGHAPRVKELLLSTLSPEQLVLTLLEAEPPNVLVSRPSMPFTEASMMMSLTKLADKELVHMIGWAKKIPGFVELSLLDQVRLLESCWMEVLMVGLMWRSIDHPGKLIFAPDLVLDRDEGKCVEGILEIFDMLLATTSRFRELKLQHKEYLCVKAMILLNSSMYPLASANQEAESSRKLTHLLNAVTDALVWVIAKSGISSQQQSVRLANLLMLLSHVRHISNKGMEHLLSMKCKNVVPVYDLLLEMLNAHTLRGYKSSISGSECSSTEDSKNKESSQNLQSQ

In general, EC50 refers to the concentration needed to bring the measured effect to its halfway point. The low end stands for greater potency, the high end for weaker potency. One may read the IC50 as the point on the concentration scale where inhibition reaches its midpoint. Low values mean inhibition by little substance, high ones a need for much substance. As for `Cn1cccc1-c1nc2ccccc2n1-c1ccc(O)cc1`, the values for the concentration giving a half-maximal response (EC50) in assay [1] and in assay [2] were greater than 1000 nM and 40.8 nM, respectively. For the same molecule, the IC50 in assay [3] was found to be 2940 nM; in assay [4], 28.1 nM.

For `Oc1ccc(-c2[nH]c3ccccc3c2-c2ccccc2)cc1`, the concentration for half-maximal inhibition (IC50) came to 8310 nM in assay [3] and 355 nM in assay [4].

Take `Oc1ccc(-c2noc(C(F)(F)F)c2-c2ccccc2)cc1`: the IC50 in assay [3] turned out to be 8.5 nM; in assay [4], 2.4 nM.

With `Oc1ccc(-c2[nH]c3ccccc3c2-c2ccc(O)cc2)cc1`, the results for the IC50 in assay [3] and in assay [4] were 94.8 nM and 11.9 nM, respectively.

Consider `Oc1ccc(-n2c(-c3ccccc3)nc3ccccc32)cc1`, for which the IC50 in assay [3] came out at 1800 nM; in assay [4], 137 nM.

With `c1ccc(-c2[nH]c3ccccc3c2-c2ccccc2)cc1`, the IC50 in assay [3] was 6950 nM; in assay [4], 171 nM.

For `Oc1ccc(-c2[nH]c(C(F)(F)F)nc2-c2ccccc2)cc1`, the half-maximal effective concentration (EC50) stood at 243 nM in assay [1] and 6.7 nM in assay [2]. For the same molecule, the IC50 in assay [3] was 403 nM; in assay [4], 15.1 nM.

`Oc1ccc(-n2c(-c3cccs3)nc3ccccc32)cc1`: the IC50 in assay [3] was greater than 6260 nM; in assay [4], 49.7 nM.

For the molecule `Oc1ccc(-n2c(-c3ccccc3Cl)nc3ccccc32)cc1`, the IC50 in assay [3] came out at 1730 nM; in assay [4] it was 149 nM.

Regarding `Oc1ccc(-c2c(-c3ccccc3)[nH]c3ccccc23)cc1`, the EC50 is 38.5 nM in assay [1] and 1.09 nM in assay [2]. In addition, the half-inhibitory concentration (IC50) in assay [3] turned out to be 24 nM; in assay [4], 1.12 nM.

With `Cc1nocc1-c1nc2ccccc2n1-c1ccc(O)cc1`, the figures for the IC50 in assay [3] and in assay [4] were 1160 nM and 14.3 nM, respectively.
